Values quoted from earlier work as cited in patent US20070202158A1, “Methods Of Administering Water-Soluble Prodrugs Of Propofol For Extended Sedation” (MGI GP, Inc., priority 2003, published 2007).

Test system: patients
Settings: anesthetic induction doses; cited from earlier work

In the case of `CC(C)c1cccc(C(C)C)c1O` [propofol, 2,6-diisopropylphenol], the “patients with respiratory consequences, including reduction in tidal volume and apnea” value is listed as “up to 83%”.
